According to the supplement of paper PMC10307832:

What was measured:
Assay in all cases: relative viability (nuclei count vs DMSO), 5 days (fraction); higher = more cells survive
YM155 + Luminespib = compound: COCC[n+]1c2c(n(Cc3cnccn3)c1C)C(=O)c1ccccc1C2=O [YM155] + CCNC(=O)c1noc(-c2cc(C(C)C)c(O)cc2O)c1-c1ccc(CN2CCOCC2)cc1 [Luminespib] (partner 0.01 µM)
Method in brief: (§1)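 The day after seeding in 1536-well plates, lung cancer cell lines were treated by pin tool with a single drug, or with a fixed anchor-drug dose together with five library-drug doses (not always all listed) in √10 steps. After 5 days, a combined fix-and-stain solution (final 0.05% Triton X-100, 1% formaldehyde, 1 ug/ml Hoechst) was added. Nuclei counted on 4× images gave relative viability as treated counts over vehicle counts, reported as the median of duplicate plates.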

Quizartinib + Lapatinib = compound: CC(C)(C)c1cc(NC(=O)Nc2ccc(-c3cn4c(n3)sc3cc(OCCN5CCOCC5)ccc34)cc2)no1 [Quizartinib] + CS(=O)(=O)CCNCc1ccc(-c2ccc3ncnc(Nc4ccc(OCc5cccc(F)c5)c(Cl)c4)c3c2)o1 [Lapatinib] (partner 2 µM)
Method in brief: as §1

YM155 + Palbociclib = compound: COCC[n+]1c2c(n(Cc3cnccn3)c1C)C(=O)c1ccccc1C2=O [YM155] + CC(=O)c1c(C)c2cnc(Nc3ccc(N4CCNCC4)cn3)nc2n(C2CCCC2)c1=O [Palbociclib] (partner 0.5 µM)
Method in brief: as §1

YM155 + Phenformin = compound: COCC[n+]1c2c(n(Cc3cnccn3)c1C)C(=O)c1ccccc1C2=O [YM155] + N=C(N)NC(=N)NCCc1ccccc1 [Phenformin] (partner 250 µM)
Method in brief: as §1

Row | Cell Line | relative viability (YM155 + Luminespib; first compound 0.002 µM) | relative viability (YM155 + Luminespib; first compound 0.006325 µM) | relative viability (YM155 + Luminespib; first compound 0.02 µM) | relative viability (YM155 + Luminespib; first compound 0.06325 µM) | relative viability (Quizartinib + Lapatinib; first compound 0.001 µM) | relative viability (Quizartinib + Lapatinib; first compound 0.003162 µM) | relative viability (Quizartinib + Lapatinib; first compound 0.01 µM) | relative viability (Quizartinib + Lapatinib; first compound 0.03162 µM) | relative viability (Quizartinib + Lapatinib; first compound 0.1 µM) | relative viability (YM155 + Palbociclib; first compound 0.002 µM) | relative viability (YM155 + Palbociclib; first compound 0.006325 µM) | relative viability (YM155 + Palbociclib; first compound 0.02 µM) | relative viability (YM155 + Palbociclib; first compound 0.06325 µM) | relative viability (YM155 + Phenformin; first compound 0.002 µM) | relative viability (YM155 + Phenformin; first compound 0.006325 µM) | relative viability (YM155 + Phenformin; first compound 0.02 µM) | relative viability (YM155 + Phenformin; first compound 0.06325 µM)
1 | NCI-H650 | 0.768 | 0.803 | 0.75 | 0.89 | 0.888 | 0.754 | 0.726 | 0.688 | 1.1 | 0.314 | 0.292 | 0.383 | 0.31 | 0.417 | 0.477 | 0.523 | 0.447
2 | NCI-H661 | 0.841 | 0.948 | 0.927 | 0.393 | 0.493 | 0.457 | 0.436 | 0.468 | 0.691 | 0.405 | 0.401 | 0.418 | 0.327 | 0.257 | 0.245 | 0.264 | 0.288
3 | NCI-H727 | 0.588 | 0.336 | 0.307 | 0.665 | 0.876 | – | 0.929 | 0.875 | 0.725 | 0.639 | 0.694 | 0.615 | 0.705 | 0.532 | 0.522 | 0.634 | 0.689
4 | NCI-H838 | 0.254 | 0.429 | 0.234 | 0.158 | 0.816 | 1.11 | 0.784 | 0.675 | 0.605 | 0.191 | 0.237 | 0.226 | 0.198 | 0.54 | 0.625 | 0.583 | 0.717
5 | NCI-H1355 | 0.633 | 0.724 | 0.733 | 0.683 | 0.979 | 0.992 | 1 | 0.914 | 1.06 | 0.4 | 0.39 | 0.4 | 0.394 | 0.442 | 0.46 | 0.493 | 0.499
6 | NCI-H1395 | 0.934 | 0.81 | 0.798 | 0.971 | 0.992 | 0.941 | 0.883 | 0.842 | 1.2 | 0.565 | 0.613 | 0.598 | 0.627 | 0.419 | 0.465 | 0.453 | 0.481
7 | NCI-H1437 | 1.1 | 1.1 | 0.976 | 0.76 | 0.738 | 0.827 | 0.764 | 0.45 | 0.543 | 0.245 | 0.329 | 0.309 | 0.298 | 0.285 | 0.308 | 0.257 | 0.324
8 | NCI-H1650 | 0.181 | 0.197 | 0.175 | 0.228 | 0.189 | 0.782 | 0.579 | – | 0.686 | 0.229 | 0.347 | 0.286 | 0.216 | 0.356 | 0.412 | 0.484 | 0.557
9 | NCI-H1651 | 0.869 | 0.836 | 0.789 | 0.604 | 0.718 | 0.831 | 0.781 | 0.274 | 0.821 | 0.548 | 0.519 | 0.494 | 0.53 | 0.316 | 0.366 | 0.326 | 0.377
10 | NCI-H1666 | 1.01 | 1.07 | 1.02 | 0.852 | 0.691 | 0.634 | 0.727 | 0.38 | 0.639 | 0.616 | 0.701 | 0.651 | 0.611 | 0.567 | 0.599 | 0.578 | 0.579
11 | NCI-H1734 | 0.242 | 0.202 | 0.23 | 0.174 | 0.869 | 1.1 | 1.08 | 0.873 | 0.998 | 0.362 | 0.313 | 0.374 | 0.345 | 0.43 | 0.451 | 0.404 | 0.509
12 | NCI-H1755 | 0.519 | 0.445 | 0.473 | 0.583 | 0.909 | 0.98 | 1.1 | 1.07 | 1.04 | 0.439 | 0.478 | 0.456 | 0.453 | 0.626 | 0.575 | 0.602 | 0.657
13 | NCI-H1792 | 0.441 | 0.47 | 0.475 | 0.403 | 0.796 | 0.853 | 0.969 | 0.866 | 0.932 | 0.628 | 0.685 | 0.638 | 0.665 | – | – | 0.285 | 0.523
14 | NCI-H1793 | 0.234 | 0.24 | 0.333 | 0.189 | 0.533 | 0.743 | 0.82 | 0.899 | 0.795 | 0.292 | 0.324 | 0.323 | 0.304 | 0.348 | 0.371 | 0.365 | 0.353
15 | NCI-H1915 | 0.803 | 0.809 | 0.829 | 0.711 | 0.939 | 0.931 | 0.938 | 0.965 | 1.04 | 0.494 | 0.533 | 0.539 | 0.552 | 0.351 | 0.357 | 0.368 | 0.355
16 | NCI-H1944 | 0.688 | 0.637 | 0.81 | 1.16 | 0.768 | 0.868 | 0.707 | 0.792 | 0.721 | 0.337 | 0.296 | 0.328 | 0.325 | 0.208 | 0.17 | 0.202 | 0.205
17 | NCI-H1975 | 0.283 | 0.253 | 0.209 | 0.156 | 0.746 | 0.894 | 0.847 | 0.864 | 1.18 | 0.463 | 0.531 | 0.643 | 0.259 | 0.384 | 0.415 | 0.406 | 0.395
18 | NCI-H1993 | 0.722 | 0.695 | 0.444 | 0.529 | 0.786 | 0.846 | 0.72 | 0.746 | 0.891 | 0.557 | 0.657 | 0.554 | 0.43 | 0.463 | 0.547 | 0.488 | 0.512
